Measured values reported in PubChem BioAssay AID330 (DTP/NCI, 2004).
Values joined by “and” are separate entries in the source; they are usually repeats but may differ in a detail not shown here. Equal values may be shown once. Toxic doses and inconclusive results are not listed.

Test system: P388 leukemia ip, CD2F1 mice, survival T/C
Experiment: NCI In Vivo Anticancer Drug Screen. Data for tumor model P388 Leukemia (intraperitoneal) in CD2F1 (CDF1) mice
Details: endpoint: median survival time, higher = longer survival
Procedure, shortened: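 Mice carrying the transplanted tumor received test compound or vehicle. Survival was recorded in each group, and the value is the treated-group measurement divided by that of the vehicle-treated control group.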

[1] = dose: 60.0 mg/kg/injection, schedule: Q01DX005 (ip), vehicle: Klucel (hydroxypropylcellulose) (HPC)
[2] = dose: 120.0 mg/kg/injection, schedule: Q01DX005 (ip), vehicle: Klucel (hydroxypropylcellulose) (HPC)
[3] = dose: 240.0 mg/kg/injection, schedule: Q01DX005 (ip), vehicle: Klucel (hydroxypropylcellulose) (HPC)
[4] = dose: 50.0 mg/kg/injection, schedule: Q01DX009 (ip), vehicle: saline
[5] = dose: 100.0 mg/kg/injection, schedule: Q01DX009 (ip), vehicle: saline
[6] = dose: 25.0 mg/kg/injection, schedule: Q01DX009 (ip), vehicle: Klucel (hydroxypropylcellulose) (HPC)
[7] = dose: 50.0 mg/kg/injection, schedule: Q01DX009 (ip), vehicle: Klucel (hydroxypropylcellulose) (HPC)
[8] = dose: 100.0 mg/kg/injection, schedule: Q01DX009 (ip), vehicle: Klucel (hydroxypropylcellulose) (HPC)
[9] = dose: 200.0 mg/kg/injection, schedule: Q01DX009 (ip), vehicle: saline
[10] = dose: 400.0 mg/kg/injection, schedule: Q01DX009 (ip), vehicle: saline
[11] = dose: 200.0 mg/kg/injection, schedule: Q01DX009 (ip), vehicle: Klucel (hydroxypropylcellulose) (HPC)
[12] = dose: 50.0 mg/kg/injection, schedule: Q01DX005 (ip), vehicle: saline
[13] = dose: 100.0 mg/kg/injection, schedule: Q01DX005 (ip), vehicle: saline
[14] = dose: 200.0 mg/kg/injection, schedule: Q01DX005 (ip), vehicle: saline
[15] = dose: 60.0 mg/kg/injection, schedule: Q01DX005 (ip), vehicle: saline with Tween-80
[16] = dose: 120.0 mg/kg/injection, schedule: Q01DX005 (ip), vehicle: saline with Tween-80
[17] = dose: 240.0 mg/kg/injection, schedule: Q01DX005 (ip), vehicle: saline with Tween-80

## COc1cc(/C=C/C2=C(C)C(=O)CC(c3cc(OC)cc(OC)c3)C2C)cc(OC)c1 (configuration not stated)
dose: 12.5 mg/kg/injection, schedule: Q04DX003 (ip), vehicle: Klucel (hydroxypropylcellulose) (HPC)
  T/C: 100 % of control
dose: 25.0 mg/kg/injection, schedule: Q04DX003 (ip), vehicle: Klucel (hydroxypropylcellulose) (HPC)
  T/C: 98 % of control
dose: 50.0 mg/kg/injection, schedule: Q04DX003 (ip), vehicle: Klucel (hydroxypropylcellulose) (HPC)
  T/C: 95 % of control

## CC(=O)c1c(C)n(C)c2c1nnc1ccccc12
[1]
  T/C: 101 % of control
[2]
  T/C: 97 % of control
[3]
  T/C: 99 % of control

## Clc1ncnc2c1ncn2C1CCCO1 (configuration not stated)
[4]
  T/C: 110 % of control
[5]
  T/C: 115 % of control

## CN1CN(c2ccc([N+](=O)[O-])cc2)N=N1
dose: 50.0 mg/kg/injection, schedule: Q01DX005 (ip), vehicle: Klucel (hydroxypropylcellulose) (HPC)
  T/C: 95 % of control
dose: 100.0 mg/kg/injection, schedule: Q01DX005 (ip), vehicle: Klucel (hydroxypropylcellulose) (HPC)
  T/C: 97 % of control
dose: 200.0 mg/kg/injection, schedule: Q01DX005 (ip), vehicle: Klucel (hydroxypropylcellulose) (HPC)
  T/C: 94 % of control

## CCOC1(NC(=O)N(C)C)C2CCCC21 (configuration not stated)
[6]
  T/C: 97 % of control
[7]
  T/C: 97 % of control
[8]
  T/C: 94 % of control

## Cc1ccc(OP(=O)(Oc2ccc(C)cc2)Oc2ccc(C)cc2)cc1.Cc1ccc(OP(=O)(Oc2ccc(C)cc2)Oc2ccc(C)cc2)cc1.Cc1ccc(OP(=O)(Oc2ccc(C)cc2)Oc2ccc(C)cc2)cc1.Cc1ccc(OP(=O)(Oc2ccc(C)cc2)Oc2ccc(C)cc2)cc1.[Ni+2].[O-][Cl+3]([O-])([O-])O
dose: 20.0 mg/kg/injection, schedule: Q01DX001 (ip), vehicle: Klucel (hydroxypropylcellulose) (HPC)
  T/C: 100 % of control
dose: 40.0 mg/kg/injection, schedule: Q01DX001 (ip), vehicle: Klucel (hydroxypropylcellulose) (HPC)
  T/C: 106 % of control
dose: 80.0 mg/kg/injection, schedule: Q01DX001 (ip), vehicle: Klucel (hydroxypropylcellulose) (HPC)
  T/C: 97 % of control

## NCCNc1ccc(NCCN)c2c1C(=O)c1ccccc1C2=O
dose: 0.78 mg/kg/injection, schedule: Q01DX009 (ip), vehicle: distilled water + alcohol
  T/C: 150 % of control
dose: 2.0 mg/kg/injection, schedule: Q01DX009 (ip), vehicle: acid diluted with saline
  T/C: 185 % of control
dose: 3.13 mg/kg/injection, schedule: Q01DX009 (ip), vehicle: distilled water + alcohol
  T/C: 107 % of control
dose: 4.0 mg/kg/injection, schedule: Q01DX009 (ip), vehicle: acid diluted with saline
  T/C: 194 % of control
dose: 6.25 mg/kg/injection, schedule: Q01DX009 (ip), vehicle: distilled water + alcohol
  T/C: 159 % of control
dose: 8.0 mg/kg/injection, schedule: Q01DX009 (ip), vehicle: acid diluted with saline
  T/C: 203 % of control
dose: 12.5 mg/kg/injection, schedule: Q01DX009 (ip), vehicle: distilled water + alcohol
  T/C: 174 % of control
dose: 16.0 mg/kg/injection, schedule: Q01DX009 (ip), vehicle: acid diluted with saline
  T/C: 243 % of control
dose: 25.0 mg/kg/injection, schedule: Q01DX009 (ip), vehicle: distilled water + alcohol
  T/C: 215 % of control
dose: 25.0 mg/kg/injection, schedule: Q01DX009 (ip), vehicle: other
  T/C: 158 % of control

## Nc1nc(N)c2nc(NCc3ccc(C(=O)NC(CCC(=O)O)C(=O)O)cc3)cnc2n1 (configuration not stated)
[4]
  T/C: 100 % of control
[5]
  T/C: 109 % of control
[9]
  T/C: 113 % of control
[10]
  T/C: 95 % of control

## CCNc1nc(N)nc(N)n1
[4]
  T/C: 102 % of control and 103 % of control and 104 % of control
dose: 50.0 mg/kg/injection, schedule: Q04DX002 (ip), vehicle: saline
  T/C: 107 % of control
[5]
  T/C: 100 % of control and 102 % of control and 112 % of control
dose: 100.0 mg/kg/injection, schedule: Q04DX002 (ip), vehicle: saline
  T/C: 98 % of control
[9]
  T/C: 100 % of control and 110 % of control and 120 % of control
dose: 200.0 mg/kg/injection, schedule: Q04DX002 (ip), vehicle: saline
  T/C: 98 % of control
[10]
  T/C: 102 % of control and 110 % of control

## CCC/C=c1/[nH]c(=O)/c(=C\c2ccc(OC)cc2)[nH]c1=O
[6]
  T/C: 101 % of control
[7]
  T/C: 96 % of control
[8]
  T/C: 102 % of control

## COc1ccc2c(c1)CCC1C2CCC2(C)C1CCC2(O)CCOS(=O)(=O)c1ccc(C)cc1 (configuration not stated)
[7]
  T/C: 97 % of control
dose: 50.0 mg/kg/injection, schedule: Q01DX009 (ip), vehicle: saline with Tween-80
  T/C: 100 % of control
[8]
  T/C: 97 % of control
dose: 100.0 mg/kg/injection, schedule: Q01DX009 (ip), vehicle: saline with Tween-80
  T/C: 99 % of control
[11]
  T/C: 94 % of control
dose: 200.0 mg/kg/injection, schedule: Q01DX009 (ip), vehicle: saline with Tween-80
  T/C: 104 % of control

## CCn1c(=N)sc2nc3ccccc3n2c1=O
[1]
  T/C: 103 % of control
[2]
  T/C: 103 % of control

## COc1ccc2c(OC)c(CC(=O)C(C)(C)O)c(=O)n(C)c2c1OC
dose: 19.0 mg/kg/injection, schedule: Q01DX005 (ip), vehicle: Klucel (hydroxypropylcellulose) (HPC)
  T/C: 96 % of control
dose: 38.0 mg/kg/injection, schedule: Q01DX005 (ip), vehicle: Klucel (hydroxypropylcellulose) (HPC)
  T/C: 92 % of control
dose: 76.0 mg/kg/injection, schedule: Q01DX005 (ip), vehicle: Klucel (hydroxypropylcellulose) (HPC)
  T/C: 88 % of control
dose: 152.0 mg/kg/injection, schedule: Q01DX005 (ip), vehicle: Klucel (hydroxypropylcellulose) (HPC)
  T/C: 91 % of control

## Oc1ccc2c(c1)Cc1cc3ccccc3nc1-2
[6]
  T/C: 101 % of control
[7]
  T/C: 98 % of control
[8]
  T/C: 94 % of control
[11]
  T/C: 103 % of control

## COC(=O)c1c[n+]([O-])ccc1OC
[12]
  T/C: 102 % of control
[13]
  T/C: 106 % of control
[14]
  T/C: 102 % of control

## O=S(=O)(c1ccc2ccccc2c1)N(CCCCCN(S(=O)(=O)c1ccc2ccccc2c1)S(=O)(=O)c1ccc2ccccc2c1)S(=O)(=O)c1ccc2ccccc2c1
[15]
  T/C: 104 % of control
[16]
  T/C: 94 % of control

## CCCCOC(=O)CNCC(=O)OCCCC
[15]
  T/C: 100 % of control
[16]
  T/C: 101 % of control
[17]
  T/C: 104 % of control

## CC(=O)[O-].CC(=O)[O-].CC(=O)[O-].CC(=O)[O-].Cn1c(=O)c2[nH]cnc2n(C)c1=O.Cn1c(=O)c2[nH]cnc2n(C)c1=O.[Rh+2].[Rh+2]
dose: 3.12 mg/kg/injection, schedule: Q04DX002 (ip), vehicle: Klucel (hydroxypropylcellulose) (HPC)
  T/C: 100 % of control
dose: 6.25 mg/kg/injection, schedule: Q04DX002 (ip), vehicle: Klucel (hydroxypropylcellulose) (HPC)
  T/C: 101 % of control and 120 % of control
dose: 12.5 mg/kg/injection, schedule: Q04DX002 (ip), vehicle: Klucel (hydroxypropylcellulose) (HPC)
  T/C: 101 % of control and 118 % of control
dose: 25.0 mg/kg/injection, schedule: Q04DX002 (ip), vehicle: Klucel (hydroxypropylcellulose) (HPC)
  T/C: 103 % of control and 110 % of control
dose: 50.0 mg/kg/injection, schedule: Q04DX002 (ip), vehicle: Klucel (hydroxypropylcellulose) (HPC)
  T/C: 103 % of control

## CCC(O)(c1ccccc1)c1cnc(C)n1Cc1ccccc1 (configuration not stated)
[15]
  T/C: 91 % of control
[16]
  T/C: 88 % of control
[17]
  T/C: 89 % of control

## COc1ccc(C(c2cc3c(cc2O)OCO3)N2CCOCC2)c(OC)c1 (configuration not stated)
[1]
  T/C: 101 % of control
[2]
  T/C: 99 % of control
[3]
  T/C: 110 % of control

## CC(C)(C)CC(C)(C)c1ccc(O)c(O)c1
dose: 25.0 mg/kg/injection, schedule: Q01DX005 (ip), vehicle: saline
  T/C: 100 % of control
[12]
  T/C: 101 % of control
[13]
  T/C: 106 % of control
[5]
  T/C: 106 % of control and 94 % of control
[14]
  T/C: 110 % of control
[10]
  T/C: 94 % of control

## CCOC(=O)C(OCC)C1=Cc2ccccc2CC1 (configuration not stated)
dose: 25.0 mg/kg/injection, schedule: Q01DX001 (ip), vehicle: Klucel (hydroxypropylcellulose) (HPC)
  T/C: 93 % of control
dose: 50.0 mg/kg/injection, schedule: Q01DX001 (ip), vehicle: Klucel (hydroxypropylcellulose) (HPC)
  T/C: 100 % of control
dose: 100.0 mg/kg/injection, schedule: Q01DX001 (ip), vehicle: Klucel (hydroxypropylcellulose) (HPC)
  T/C: 93 % of control
dose: 200.0 mg/kg/injection, schedule: Q01DX001 (ip), vehicle: Klucel (hydroxypropylcellulose) (HPC)
  T/C: 102 % of control
dose: 400.0 mg/kg/injection, schedule: Q01DX001 (ip), vehicle: Klucel (hydroxypropylcellulose) (HPC)
  T/C: 107 % of control
